From the supplement of paper PMC10307832

Assays:
Assay in all cases: relative viability (nuclei count vs DMSO), 5 days (fraction); higher = more cells survive
Motesanib + Bortezomib = compound: CC1(C)CNc2cc(NC(=O)c3cccnc3NCc3ccncc3)ccc21 [Motesanib] + CC(C)C[C@H](NC(=O)[C@H](Cc1ccccc1)NC(=O)c1cnccn1)B(O)O [Bortezomib] (partner 0.002 µM)
Method in brief: (§1)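 Dosing by pin tool came one day after lung cancer cell lines were seeded in 1536-well plates, using either one drug or a fixed anchor-drug dose plus five library-drug doses (not always all listed) in √10 steps. After 5 days, nuclei were counted on 4× images. Relative viability is treated-well nuclei count divided by vehicle-well nuclei count, and values are medians of duplicate plates.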

Motesanib + Linsitinib = compound: CC1(C)CNc2cc(NC(=O)c3cccnc3NCc3ccncc3)ccc21 [Motesanib] + C[C@]1(O)C[C@@H](c2nc(-c3ccc4ccc(-c5ccccc5)nc4c3)c3c(N)nccn32)C1 [Linsitinib] (partner 1 µM)
Method in brief: as §1

[1] = compound: C[C@@]1(C(=O)Nc2ccc(F)nc2)CCCN1c1nc(Nc2cc(C3CC3)n[nH]2)c2cccn2n1 + CC(=O)c1c(C)c2cnc(Nc3ccc(N4CCNCC4)cn3)nc2n(C2CCCC2)c1=O [Palbociclib] (partner 0.5 µM)
Method in brief: as §1

[2] = compound: C[C@@]1(C(=O)Nc2ccc(F)nc2)CCCN1c1nc(Nc2cc(C3CC3)n[nH]2)c2cccn2n1 + Cc1nc(Nc2ncc(C(=O)Nc3c(C)cccc3Cl)s2)cc(N2CCN(CCO)CC2)n1 [Dasatinib] (partner 0.075 µM)
Method in brief: as §1

NCI-H1915 was tested, and the relative viability (Motesanib + Bortezomib; first compound 0.01 µM) was 0.959, the relative viability (Motesanib + Bortezomib; first compound 0.03162 µM) was 0.929 and the relative viability (Motesanib + Bortezomib; first compound 0.1 µM) was 0.936. The relative viability (Motesanib + Bortezomib; first compound 0.3162 µM) was 0.98, the relative viability (Motesanib + Bortezomib; first compound 1 µM) was 0.989 and the relative viability (Motesanib + Linsitinib; first compound 0.01 µM) was 1.09. The relative viability (Motesanib + Linsitinib; first compound 0.03162 µM) was 1.19, the relative viability (Motesanib + Linsitinib; first compound 0.1 µM) was 1.11 and the relative viability (Motesanib + Linsitinib; first compound 0.3162 µM) was 1.16. The relative viability (Motesanib + Linsitinib; first compound 1 µM) was 1.08, the relative viability ([1]; first compound 0.04 µM) was 0.534 and the relative viability ([1]; first compound 0.1265 µM) was 0.507. The relative viability ([1]; first compound 0.4 µM) was 0.52, the relative viability ([1]; first compound 1.265 µM) was 0.551 and the relative viability ([2]; first compound 0.04 µM) was 0.302. It also gave a relative viability ([2]; first compound 0.1265 µM) of 0.3, a relative viability ([2]; first compound 0.4 µM) of 0.288 and a relative viability ([2]; first compound 1.265 µM) of 0.268.
NCI-H1975 was tested, and the relative viability (Motesanib + Bortezomib; first compound 0.01 µM) was 0.378, the relative viability (Motesanib + Bortezomib; first compound 0.03162 µM) was 0.406 and the relative viability (Motesanib + Bortezomib; first compound 0.1 µM) was 0.326. The relative viability (Motesanib + Bortezomib; first compound 0.3162 µM) was 0.391, the relative viability (Motesanib + Bortezomib; first compound 1 µM) was 0.369 and the relative viability (Motesanib + Linsitinib; first compound 0.01 µM) was 0.962. It also gave a relative viability (Motesanib + Linsitinib; first compound 0.03162 µM) of 0.9, a relative viability (Motesanib + Linsitinib; first compound 0.1 µM) of 0.948 and a relative viability (Motesanib + Linsitinib; first compound 0.3162 µM) of 0.909. It also gave a relative viability (Motesanib + Linsitinib; first compound 1 µM) of 0.941, a relative viability ([1]; first compound 0.04 µM) of 0.564 and a relative viability ([1]; first compound 0.1265 µM) of 0.521. For the same cell line, the relative viability ([1]; first compound 0.4 µM) was 0.374, the relative viability ([1]; first compound 1.265 µM) was 0.452 and the relative viability ([2]; first compound 0.04 µM) was 0.263. For the same cell line, the relative viability ([2]; first compound 0.1265 µM) was 0.306, the relative viability ([2]; first compound 0.4 µM) was 0.181 and the relative viability ([2]; first compound 1.265 µM) was 0.154.
NCI-H1993 showed a relative viability (Motesanib + Bortezomib; first compound 0.01 µM) of 1.09, a relative viability (Motesanib + Bortezomib; first compound 0.03162 µM) of 1.06 and a relative viability (Motesanib + Bortezomib; first compound 0.1 µM) of 1.08. It also gave a relative viability (Motesanib + Bortezomib; first compound 0.3162 µM) of 1.28, a relative viability (Motesanib + Bortezomib; first compound 1 µM) of 1.06 and a relative viability (Motesanib + Linsitinib; first compound 0.01 µM) of 0.675. For the same cell line, the relative viability (Motesanib + Linsitinib; first compound 0.03162 µM) was 0.759, the relative viability (Motesanib + Linsitinib; first compound 0.1 µM) was 0.727 and the relative viability (Motesanib + Linsitinib; first compound 0.3162 µM) was 0.719. For the same cell line, the relative viability (Motesanib + Linsitinib; first compound 1 µM) was 0.762, the relative viability ([1]; first compound 0.04 µM) was 0.461 and the relative viability ([1]; first compound 0.1265 µM) was 0.465. The relative viability ([1]; first compound 0.4 µM) was 0.27, the relative viability ([1]; first compound 1.265 µM) was 0.49 and the relative viability ([2]; first compound 0.04 µM) was 0.523. For the same cell line, the relative viability ([2]; first compound 0.1265 µM) was 0.454, the relative viability ([2]; first compound 0.4 µM) was 0.356 and the relative viability ([2]; first compound 1.265 µM) was 0.512.
NCI-H2009 gave a relative viability (Motesanib + Bortezomib; first compound 0.01 µM) of 1.07, a relative viability (Motesanib + Bortezomib; first compound 0.03162 µM) of 1.05 and a relative viability (Motesanib + Bortezomib; first compound 0.1 µM) of 1.05. For the same cell line, the relative viability (Motesanib + Bortezomib; first compound 0.3162 µM) was 1.2, the relative viability (Motesanib + Bortezomib; first compound 1 µM) was 1 and the relative viability (Motesanib + Linsitinib; first compound 0.01 µM) was 1.14. The relative viability (Motesanib + Linsitinib; first compound 0.03162 µM) was 1.27, the relative viability (Motesanib + Linsitinib; first compound 0.1 µM) was 1.17 and the relative viability (Motesanib + Linsitinib; first compound 0.3162 µM) was 1.22. It also gave a relative viability (Motesanib + Linsitinib; first compound 1 µM) of 1.18, a relative viability ([1]; first compound 0.04 µM) of 0.221 and a relative viability ([1]; first compound 0.1265 µM) of 0.258. For the same cell line, the relative viability ([1]; first compound 0.4 µM) was 0.162, the relative viability ([1]; first compound 1.265 µM) was 0.212 and the relative viability ([2]; first compound 0.04 µM) was 0.279. The relative viability ([2]; first compound 0.1265 µM) was 0.224, the relative viability ([2]; first compound 0.4 µM) was 0.166 and the relative viability ([2]; first compound 1.265 µM) was 0.154.
For NCI-H2023, the relative viability (Motesanib + Bortezomib; first compound 0.01 µM) was 0.934, the relative viability (Motesanib + Bortezomib; first compound 0.03162 µM) was 1.07 and the relative viability (Motesanib + Bortezomib; first compound 0.1 µM) was 0.887. It also gave a relative viability (Motesanib + Bortezomib; first compound 0.3162 µM) of 0.966, a relative viability (Motesanib + Bortezomib; first compound 1 µM) of 1.09 and a relative viability (Motesanib + Linsitinib; first compound 0.01 µM) of 0.756. It also gave a relative viability (Motesanib + Linsitinib; first compound 0.03162 µM) of 0.695, a relative viability (Motesanib + Linsitinib; first compound 0.1 µM) of 0.715 and a relative viability (Motesanib + Linsitinib; first compound 0.3162 µM) of 0.587. For the same cell line, the relative viability (Motesanib + Linsitinib; first compound 1 µM) was 0.643, the relative viability ([1]; first compound 0.04 µM) was 0.255 and the relative viability ([1]; first compound 0.1265 µM) was 0.22. The relative viability ([1]; first compound 0.4 µM) was 0.174, the relative viability ([1]; first compound 1.265 µM) was 0.209 and the relative viability ([2]; first compound 0.04 µM) was 0.407. It also gave a relative viability ([2]; first compound 0.1265 µM) of 0.165, a relative viability ([2]; first compound 0.4 µM) of 0.154 and a relative viability ([2]; first compound 1.265 µM) of 0.105.
For NCI-H2085, the relative viability (Motesanib + Bortezomib; first compound 0.01 µM) was 1.14, the relative viability (Motesanib + Bortezomib; first compound 0.03162 µM) was 1.12 and the relative viability (Motesanib + Bortezomib; first compound 0.1 µM) was 0.977. The relative viability (Motesanib + Bortezomib; first compound 0.3162 µM) was 1.09, the relative viability (Motesanib + Bortezomib; first compound 1 µM) was 1.14 and the relative viability (Motesanib + Linsitinib; first compound 0.01 µM) was 0.936. The relative viability (Motesanib + Linsitinib; first compound 0.03162 µM) was 0.853, the relative viability (Motesanib + Linsitinib; first compound 0.1 µM) was 1.13 and the relative viability (Motesanib + Linsitinib; first compound 0.3162 µM) was 0.996. For the same cell line, the relative viability (Motesanib + Linsitinib; first compound 1 µM) was 0.886, the relative viability ([1]; first compound 0.04 µM) was 0.485 and the relative viability ([1]; first compound 0.1265 µM) was 0.455. The relative viability ([1]; first compound 0.4 µM) was 0.439, the relative viability ([1]; first compound 1.265 µM) was 0.443 and the relative viability ([2]; first compound 0.04 µM) was 0.289. For the same cell line, the relative viability ([2]; first compound 0.1265 µM) was 0.309, the relative viability ([2]; first compound 0.4 µM) was 0.187 and the relative viability ([2]; first compound 1.265 µM) was 0.178.
Work on NCI-H2087 yielded a relative viability (Motesanib + Bortezomib; first compound 0.01 µM) of 0.796, a relative viability (Motesanib + Bortezomib; first compound 0.03162 µM) of 0.781 and a relative viability (Motesanib + Bortezomib; first compound 0.1 µM) of 0.885. The relative viability (Motesanib + Bortezomib; first compound 0.3162 µM) was 0.76, the relative viability (Motesanib + Bortezomib; first compound 1 µM) was 0.704 and the relative viability (Motesanib + Linsitinib; first compound 0.01 µM) was 0.885. The relative viability (Motesanib + Linsitinib; first compound 0.03162 µM) was 1.03, the relative viability (Motesanib + Linsitinib; first compound 0.1 µM) was 1.16 and the relative viability (Motesanib + Linsitinib; first compound 0.3162 µM) was 0.998. The relative viability (Motesanib + Linsitinib; first compound 1 µM) was 1.1, the relative viability ([1]; first compound 0.04 µM) was 0.218 and the relative viability ([1]; first compound 0.1265 µM) was 0.188. The relative viability ([1]; first compound 0.4 µM) was 0.177, the relative viability ([1]; first compound 1.265 µM) was 0.181 and the relative viability ([2]; first compound 0.04 µM) was 0.727. It also gave a relative viability ([2]; first compound 0.1265 µM) of 0.568, a relative viability ([2]; first compound 0.4 µM) of 0.508 and a relative viability ([2]; first compound 1.265 µM) of 0.389.
With NCI-H2126 the relative viability (Motesanib + Bortezomib; first compound 0.01 µM) was 1.07, the relative viability (Motesanib + Bortezomib; first compound 0.03162 µM) was 1.17 and the relative viability (Motesanib + Bortezomib; first compound 0.1 µM) was 1.11. It also gave a relative viability (Motesanib + Bortezomib; first compound 0.3162 µM) of 1.17, a relative viability (Motesanib + Bortezomib; first compound 1 µM) of 1.12 and a relative viability (Motesanib + Linsitinib; first compound 0.01 µM) of 0.736. It also gave a relative viability (Motesanib + Linsitinib; first compound 0.03162 µM) of 0.73, a relative viability (Motesanib + Linsitinib; first compound 0.1 µM) of 0.719 and a relative viability (Motesanib + Linsitinib; first compound 0.3162 µM) of 0.74. For the same cell line, the relative viability (Motesanib + Linsitinib; first compound 1 µM) was 0.701, the relative viability ([1]; first compound 0.04 µM) was 0.353 and the relative viability ([1]; first compound 0.1265 µM) was 0.309. The relative viability ([1]; first compound 0.4 µM) was 0.342, the relative viability ([1]; first compound 1.265 µM) was 0.359 and the relative viability ([2]; first compound 0.04 µM) was 0.346. It also gave a relative viability ([2]; first compound 0.1265 µM) of 0.242, a relative viability ([2]; first compound 0.4 µM) of 0.262 and a relative viability ([2]; first compound 1.265 µM) of 0.294.
